Measured values taken from article PMC11111955, “Safety and efficacy evaluation of halicin as an effective drug for inhibiting intestinal infections” (Frontiers in Pharmacology, 2024).
Like-named read-outs stand apart in the source and are kept apart here.

Tested on: mouse bone marrow cells
Conditions: for Chromosome aberration (%) / Number of cells with chromosome aberration: ICR mice, oral; for Number of cells with chromosome aberration: of 5 × 100 cells at metaphase

Question: Which results are given for `Nc1nnc(Sc2ncc([N+](=O)[O-])s2)s1` [halicin]?
Answer: teratogenic effect on bone marrow cells (252.3 mg/kg to 1009.1 mg/kg, p > 0.05 vs negative control): no significant teratogenic effect; Chromosome aberration (%) (High-does (1009.1) mg/kg): 1.4 ± 0.55%; Number of cells with chromosome aberration (High-does (1009.1) mg/kg): 7; Chromosome aberration (%) (Low-does (252.3) mg/kg): 1.4 ± 1.14%; Number of cells with chromosome aberration (Low-does (252.3) mg/kg): 7; Chromosome aberration (%) (Medium-does (504.6) mg/kg): 1.6 ± 0.89%; Number of cells with chromosome aberration (Medium-does (504.6) mg/kg): 8
